Laboratory results: paper PMC7730863 (Journal of medicinal chemistry, 2020)

Biological target: EGFR-L858R/T790M (Homo sapiens, UniProt P00533, L858R/T790M)
Test: radiolabeled 33P
Type: biochemical
Conditions: statement in text referring to Table 1

Sequence of EGFR-L858R/T790M (P00533 25-1210 T790M/L858R): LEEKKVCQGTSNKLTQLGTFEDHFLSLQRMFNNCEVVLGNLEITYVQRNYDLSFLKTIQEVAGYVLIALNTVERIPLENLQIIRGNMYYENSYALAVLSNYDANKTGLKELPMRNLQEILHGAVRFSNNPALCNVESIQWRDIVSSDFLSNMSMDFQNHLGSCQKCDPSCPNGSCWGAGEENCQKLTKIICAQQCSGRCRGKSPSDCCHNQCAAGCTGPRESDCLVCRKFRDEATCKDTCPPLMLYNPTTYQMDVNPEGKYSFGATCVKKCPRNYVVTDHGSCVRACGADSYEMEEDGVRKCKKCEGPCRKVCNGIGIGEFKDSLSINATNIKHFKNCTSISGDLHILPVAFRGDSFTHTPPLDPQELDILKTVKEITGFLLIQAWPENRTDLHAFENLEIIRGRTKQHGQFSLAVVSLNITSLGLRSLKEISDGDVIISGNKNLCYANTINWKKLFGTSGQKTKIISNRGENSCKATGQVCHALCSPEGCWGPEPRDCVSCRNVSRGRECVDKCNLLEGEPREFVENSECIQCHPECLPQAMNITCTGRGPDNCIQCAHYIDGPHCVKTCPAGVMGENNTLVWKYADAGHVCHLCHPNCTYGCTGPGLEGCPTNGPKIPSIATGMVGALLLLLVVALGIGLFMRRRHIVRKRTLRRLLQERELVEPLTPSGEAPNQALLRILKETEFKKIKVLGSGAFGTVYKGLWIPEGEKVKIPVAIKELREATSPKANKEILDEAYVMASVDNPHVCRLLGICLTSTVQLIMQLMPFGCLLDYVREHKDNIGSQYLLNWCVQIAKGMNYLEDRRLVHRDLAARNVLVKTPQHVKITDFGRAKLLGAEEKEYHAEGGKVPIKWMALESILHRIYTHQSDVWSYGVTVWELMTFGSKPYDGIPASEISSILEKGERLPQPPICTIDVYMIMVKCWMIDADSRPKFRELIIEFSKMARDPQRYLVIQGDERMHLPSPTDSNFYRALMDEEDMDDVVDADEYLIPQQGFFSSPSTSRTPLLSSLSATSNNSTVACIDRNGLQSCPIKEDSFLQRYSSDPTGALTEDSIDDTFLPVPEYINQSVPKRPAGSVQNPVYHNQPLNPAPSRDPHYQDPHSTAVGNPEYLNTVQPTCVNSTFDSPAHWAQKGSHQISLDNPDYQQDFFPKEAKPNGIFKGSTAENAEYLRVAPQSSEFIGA

Q: For C=CC(=O)Nc1ccc(OC)c(Nc2cc(-c3nc(SC)n(C)c3-c3ccc(F)cc3)ccn2)c1 [Compound 7, N-(3-((4-(5-(4-fluorophenyl)-1-methyl-2-(methylthio)-1H-imidazol-4-yl)pyridin-2-yl)amino)-4-methoxyphenyl)acrylamide], which “potency against EGFR(L858R/T790M), in words” value is on record?
A: low nanomolar potency
